Consider 13 compounds from ChEMBL document CHEMBL4118147, “Structure-activity relationship of clovamide and its related compounds for the inhibition of amyloid β aggregation” (Bioorg Med Chem, 2018).

The target in assay [1] is T1, Amyloid-beta precursor protein (Homo sapiens, UniProt P05067). Put plainly: Inhibition of amyloid beta (1 to 42) (unknown origin) aggregation after 24 hrs by thioflavin T fluorescence assay.
For assay [2], the target named is T1, Amyloid-beta precursor protein. Put plainly: Inhibition of amyloid beta (1 to 42) (unknown origin) fibril formation at 100 uM after 24 hrs by silicotungstic acid staining based transmission electron microscopic analysis.
Assay [3] has the same target. The assay is described as follows: Inhibition of amyloid beta (1 to 42) (unknown origin) fibril formation after 24 hrs by silicotungstic acid staining based transmission electron microscopic analysis.

pIC50: −log10 of the molar value. The source made the active and inactive calls. The rule behind the calls is not given here. Some results are limits rather than exact numbers.

T1 sequence (P05067 whole entry): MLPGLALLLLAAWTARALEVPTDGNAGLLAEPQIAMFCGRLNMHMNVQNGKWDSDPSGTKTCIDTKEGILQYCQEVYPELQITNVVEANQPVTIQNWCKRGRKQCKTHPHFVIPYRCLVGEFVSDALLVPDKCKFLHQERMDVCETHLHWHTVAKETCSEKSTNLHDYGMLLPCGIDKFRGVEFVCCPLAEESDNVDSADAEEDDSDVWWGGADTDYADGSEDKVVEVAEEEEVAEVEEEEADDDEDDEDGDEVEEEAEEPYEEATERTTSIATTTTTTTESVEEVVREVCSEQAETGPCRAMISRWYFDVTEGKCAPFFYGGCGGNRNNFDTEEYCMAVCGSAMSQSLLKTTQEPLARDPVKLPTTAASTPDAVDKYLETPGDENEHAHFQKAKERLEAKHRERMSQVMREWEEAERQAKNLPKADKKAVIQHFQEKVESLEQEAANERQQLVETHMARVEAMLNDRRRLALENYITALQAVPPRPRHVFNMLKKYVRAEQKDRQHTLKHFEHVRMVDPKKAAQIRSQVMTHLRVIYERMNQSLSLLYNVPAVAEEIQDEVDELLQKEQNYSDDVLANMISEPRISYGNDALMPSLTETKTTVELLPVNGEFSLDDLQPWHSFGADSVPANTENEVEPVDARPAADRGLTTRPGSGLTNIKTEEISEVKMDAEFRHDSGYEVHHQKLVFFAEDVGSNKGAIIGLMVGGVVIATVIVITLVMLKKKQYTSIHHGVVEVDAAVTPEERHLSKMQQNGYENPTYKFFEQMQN

As to `COC(=O)[C@H](Cc1ccc(OC)c(OC)c1)NC(=O)/C=C/c1ccc(OC)c(OC)c1`, the pIC50 (as a rule, the negative decadic logarithm of the IC50, by convention in mol/L) in assay [1] was less than 4.00. The inhibition result in assay [2] is “inactive”.
In the same order, the values of `O=C(/C=C/c1ccc(O)cc1)N[C@@H](Cc1ccccc1)C(=O)O` are less than 4.00 and “inactive”.
Regarding `O=C(CCc1ccc(O)c(O)c1)N[C@@H](Cc1ccc(O)c(O)c1)C(=O)O`, in assay [1], the pIC50 was 5.06 and the inhibition entry was “Dose-dependent effect”. In addition, the inhibition result in assay [3] is “Dose-dependent effect”.
In assay [1], `O=C(/C=C/c1ccccc1)N[C@@H](Cc1ccc(O)cc1)C(=O)O` gave a pIC50 of less than 4.00. Besides, the inhibition entry in assay [2] is “inactive”.
As for `O=C(/C=C/c1ccc(O)c(O)c1)N[C@@H](Cc1ccc(O)c(O)c1)C(=O)O`, the pIC50 in assay [1] was 5.24. Further, the inhibition result in assay [1] and in assay [3] was “Dose-dependent effect” each time.
`O=C(/C=C/c1ccc(O)cc1)N[C@@H](Cc1ccc(O)cc1)C(=O)O` had a pIC50 in assay [1] of less than 4.00. The inhibition result in assay [2] is “inactive”.
In the same order, the values of `O=C(/C=C/c1ccccc1)N[C@@H](Cc1ccccc1)C(=O)O` are less than 4.00 and “inactive”.
For `COC(=O)[C@H](Cc1ccc(O)c(O)c1)NC(=O)/C=C/c1ccc(O)c(O)c1` [N-CAFFEOYL-DOPA METHYL ESTER], in assay [1], the pIC50 is 5.31 and the inhibition result was “Dose-dependent effect”. In assay [3], the inhibition entry was “Dose-dependent effect”.
Regarding `O=C(/C=C/c1ccc(O)c(O)c1)N[C@H](Cc1ccc(O)c(O)c1)C(=O)O`, in assay [1], the pIC50 was 5.80 and the inhibition result was “Dose-dependent effect”. Also, in assay [3], the inhibition result was “Dose-dependent effect”.
`O=C(/C=C/c1ccc(O)c(O)c1)N[C@@H](Cc1ccccc1)C(=O)O` had a pIC50 in assay [1] of 4.14. Moreover, the inhibition result in assay [1] and in assay [3] was “Dose-dependent effect” each time.
Consider `O=C(/C=C/c1ccc(O)c(O)c1)N[C@@H](Cc1ccc(O)cc1)C(=O)O`, for which, in assay [1], the pIC50 is 4.06 and the inhibition entry is “Dose-dependent effect”. In addition, the inhibition entry in assay [3] was “Dose-dependent effect”.
In assay [1], `O=C(/C=C/c1ccc(O)cc1)N[C@@H](Cc1ccc(O)c(O)c1)C(=O)O` showed a pIC50 of less than 4.00. Besides, the inhibition result in assay [2] is “inactive”.
In turn, `O=C(/C=C/c1ccccc1)N[C@@H](Cc1ccc(O)c(O)c1)C(=O)O` gave a pIC50 in assay [1] of 4.64. Also, the inhibition entry in assay [1] and in assay [3] was “Dose-dependent effect” throughout.
